Source: patent US7498447B2, “Therapeutic compounds” (Allergan, Inc., priority 2006, dated 2009)

Experiments:
[1] = target: T1, EP2 (Homo sapiens, UniProt P43116); test: EP2 cAMP; format: cell-based
From the text: (§1) U.S. patent application Ser. No. 11/553,143, filed on Oct. 26, 2006, incorporated by reference herein, describes the methods used to obtain the in vitro data in the tables below.

[2] = target: T2, EP4 (Homo sapiens, UniProt P35408); test: EP4 binding (KI)
From the text: as §1

[3] = target: T1, EP2; test: EP2 flipr; format: cell-based
From the text: as §1

[4] = target: T1, EP2; test: EP2 binding (Ki)
From the text: as §1

[5] = target: T2, EP4; test: EP4 flipr; format: cell-based
From the text: as §1

T2 sequence (P35408 whole entry): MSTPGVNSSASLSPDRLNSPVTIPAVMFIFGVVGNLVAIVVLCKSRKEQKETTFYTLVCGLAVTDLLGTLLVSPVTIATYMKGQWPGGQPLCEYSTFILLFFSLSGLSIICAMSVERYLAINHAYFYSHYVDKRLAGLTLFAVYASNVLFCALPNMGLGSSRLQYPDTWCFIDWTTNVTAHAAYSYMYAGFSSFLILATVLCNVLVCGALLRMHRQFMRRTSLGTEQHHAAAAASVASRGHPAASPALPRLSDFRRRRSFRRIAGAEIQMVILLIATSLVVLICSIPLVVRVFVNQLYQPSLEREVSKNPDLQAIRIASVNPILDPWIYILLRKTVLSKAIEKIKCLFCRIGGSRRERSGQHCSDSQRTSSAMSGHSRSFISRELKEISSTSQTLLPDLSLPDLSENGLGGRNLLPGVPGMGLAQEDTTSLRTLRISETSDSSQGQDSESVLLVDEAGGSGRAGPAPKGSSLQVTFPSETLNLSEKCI
T1 sequence (P43116 whole entry): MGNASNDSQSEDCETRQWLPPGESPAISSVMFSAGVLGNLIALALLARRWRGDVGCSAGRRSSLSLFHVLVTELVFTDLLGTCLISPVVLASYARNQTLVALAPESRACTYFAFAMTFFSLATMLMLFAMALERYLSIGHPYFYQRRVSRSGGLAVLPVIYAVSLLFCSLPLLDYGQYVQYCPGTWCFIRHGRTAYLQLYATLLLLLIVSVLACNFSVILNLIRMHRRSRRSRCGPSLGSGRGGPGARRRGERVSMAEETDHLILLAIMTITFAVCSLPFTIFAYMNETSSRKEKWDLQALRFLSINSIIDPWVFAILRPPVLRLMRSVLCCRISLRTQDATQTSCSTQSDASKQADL

| EC50 [1] | Ki [2] | EC50 [3] | Ki [4] | EC50 [5] | Structure (SMILES) |
| --- | --- | --- | --- | --- | --- |
| 339 nM | > 10000 nM | 2180 nM | 1840 nM |  | CCCCCC(O)c1ccc(N2CC[C@@H](Cl)[C@@H]2COCc2ccc(C(=O)O)s2)cc1 (stereo partly drawn) [5-((((2S,3R)-3-chloro-1-(4-(1-hydroxyhexyl)phenyl)pyrrolidin-2-yl)methoxy)methyl)thiophene-2-carboxylic acid] |
| 327 nM | 1490 nM | 8420 nM | 3010 nM | > 10000 nM | CCCC/C=C/c1ccc(N2CC[C@@H](Cl)[C@@H]2COCc2ccc(C(=O)O)s2)cc1 [5-((((2S,3R)-3-chloro-1-(4-((E)-hex-1-enyl)phenyl)pyrrolidin-2-yl)methoxy)methyl)thiophene-2-carboxylic acid] |
| 17 nM | 1020 nM | 3810 nM | 85 nM | > 10000 nM | CCCCCC(=O)c1ccc(N2CC[C@@H](Cl)[C@@H]2COCc2ccc(C(=O)O)s2)cc1 [5-((((2S,3R)-3-chloro-1-(4-hexanoylphenyl)pyrrolidin-2-yl)methoxy)methyl)thiophene-2-carboxylic acid] |
